Values of other authors in patent US9694008B2, “Fast-dissolving oral film preparation comprising aripiprazole” (CMG Pharmaceutical CO., LTD., priority 2012, dated 2017).

Conditions: at 25° C.

In the case of O=C1CCc2ccc(OCCCCN3CCN(c4cccc(Cl)c4Cl)CC3)cc2N1 [aripiprazole, 7-{4-[4-(2,3-dichlorophenyl)piperazin-1-yl]butoxy}-3,4-dihydroquinolin-2(1H)-one], the Solubility in water is given as “about 0.00001 w/v %”.
